Where two headings read alike, the source gives them in different places.
Tests used:
[1] = biological target: T1, recombinant human cGAS (aa147-522) (Homo sapiens, UniProt Q8N884); experiment: In vitro inhibition assay of cGAS activity (ATP consumption, KinaseGlo Max); format: biochemical
T1 construct: recombinant human cGAS (aa147-522); His6-SUMO (cleaved yes); made in house; host or cells: E. coli BL21/pLys
Outline: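 IC50 came from plotting % ATP consumption against log compound concentration, with leftover ATP detected by KinaseGlo Max chemiluminescence. Reactions ran 20 min at 37 °C with 1.5 μg/mL human cGAS (aa147-522), 6.6 μM ATP, 0.1 mM GTP and 0.01 mg/mL DNA at pH 7.5.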

[2] = test system: cGAS activity in Reporter THP1 cell line; experiment: Cellular assay to measure cGAS activity: ISRE-Gaussia luciferase reporter THP1 cells transfected with ISD; format: cell-based; conditions: Homo sapiens
Protocol: Cellular assay to measure cGAS activity: Reporter THP1 cell line harboring a gene encoding Gaussia Luciferase under the control of 5 tandem repeats of interferon-stimulated response elements (ISRE) fused to an ISG54 minimal promoter was used to test inhibition of cGAS activity by synthetic compounds in human cells. These cells were plated on 96-well plates at 0.3×10^6/well and incubated with serial dilutions of compounds or DMSO for 5 min, followed by transfection of 2 μg/mL of ISD (Interferon Stimulatory DNA, a 45 bp DNA oligo) or mock transfected using lipofectamine 2000 (Life Technology) method, according to manufacturer's instructions. 16 hours later, 15 μL of the media from each well was transferred to a new plate, 50 μL of solution containing 50 mM Hepes-NaOH, pH 6.5, 50 mM NaCl, 10 mM EDTA, 1 μM of coelenterazine was added to each well and luminescence was measured immediately. Fold increase in luminescence compared to mock transfection was plotted against concentrations of each compound, and IC50 is calculated using Graphpad. To evaluate the specificity of a compound, the same procedure was performed except that cells were transfected with 2 μg/mL poly(I:C) or infected with Sendai Virus (SeV) at 50 Unit/mL, which are known to activate the RIG-I-MAVS pathway. A specific inhibitory compound should inhibit interferon induction by DNA but have minimal effect on poly(I:C) or Sendai virus induced interferon reporter gene expression.
The letter codes for cGAS IC50 include: A (<2 μM); B (2-10 μM); C (>10 μM).

[3] = Table 3, read-out: cGAS Inhibition Results IC50
[4] = THP-1, untitled table after Table 4 (continuation)
[5] = THP-1, Table 4, Gaussia luciferase
[6] = Table 2, read-out: cGAS Inhibition Results IC50

T1 sequence (Q8N884 147-522): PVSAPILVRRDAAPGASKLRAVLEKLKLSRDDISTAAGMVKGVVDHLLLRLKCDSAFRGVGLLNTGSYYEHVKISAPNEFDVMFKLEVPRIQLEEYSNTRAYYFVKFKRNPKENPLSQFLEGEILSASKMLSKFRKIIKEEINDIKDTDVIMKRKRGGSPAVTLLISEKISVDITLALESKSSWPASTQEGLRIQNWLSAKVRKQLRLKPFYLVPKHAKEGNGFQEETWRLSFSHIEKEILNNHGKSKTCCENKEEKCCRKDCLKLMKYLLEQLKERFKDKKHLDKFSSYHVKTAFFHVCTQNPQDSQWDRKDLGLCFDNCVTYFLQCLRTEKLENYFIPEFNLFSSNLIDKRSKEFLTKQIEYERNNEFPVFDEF

SMILES | IC50 [1, 3] [nM] | IC50 [2, 4] [nM] | IC50 [2, 5] [nM] | IC50 [1, 6] [nM]
O=C(O)Cc1cccc(OC[C@@H]2CCCN2c2cc(-n3ccnc3)c3ccc(Cl)c(Cl)c3n2)c1 [I-736] | < 2000 |  | < 2000 | 
NS(=O)(=O)CC1CCN(c2cc(-n3ccnc3)c3ccc(Cl)c(Cl)c3n2)C1 (stereo not shown) [I-149] |  |  | > 10000 | < 2000
O=C(O)Cc1cccc(CNc2cc(-n3ccnc3)c3ccc(Cl)c(Cl)c3n2)c1 [I-844] | < 2000 | < 2000 |  | 
COC(=O)CC[C@@H]1CCCN1c1cc(-n2ccnc2)c2ccc(Cl)c(Cl)c2n1 [I-680] | 2000 to 30000 |  | 2000 to 10000 | 
CN(CCOc1cccc(CC(=O)O)c1)c1cc(-n2ccnc2)c2ccc(Cl)c(Cl)c2n1 [I-843] | < 2000 | 2000 to 10000 |  | 
O=C(O)[C@@H]1[C@H](CO)CCN1c1cc(-n2ccnc2)c2ccc(Cl)c(Cl)c2n1 (racemic) [I-782, 1-(7,8-dichloro-4-(1H-imidazol-1-yl)quinolin-2-yl)-3-(hydroxymethyl)pyrrolidine-2-carboxylic acid] | < 2000 | > 10000 |  | 
O=C(O)CCOCC1COCCN(c2cc(-n3ccnc3)c3ccc(Cl)c(Cl)c3n2)C1 (stereo not shown) [I-868] | < 2000 | 2000 to 10000 |  | 
O=C(O)C1CCCC1OC[C@@H]1CCCN1c1cc(-n2ccnc2)c2ccc(Cl)c(Cl)c2n1 (stereo partly shown) [I-816] | < 2000 | < 2000 |  | 
O=C(O)CCO[C@@H]([C@@H]1CCCN1c1cc(-n2ccnc2)c2ccc(Cl)c(Cl)c2n1)C(F)(F)F [I-722] | < 2000 |  | 2000 to 10000 | 
O=C(O)CCOC[C@@H]1CC2(CC2)CN1c1cc(-n2ccnc2)c2ccc(Cl)c(Cl)c2n1 [I-709] | < 2000 |  | < 2000 | 
C[C@H]1CC[C@@H](C(=O)O)N1c1cc(-n2ccnc2)c2ccc(Cl)c(Cl)c2n1 [I-507] | < 2000 |  | 2000 to 10000 | 
COC(=O)[C@@H]1CC(C)(C)CN1c1cc(-n2ccnc2)c2ccc(Cl)c(Cl)c2n1 [I-583] | 2000 to 30000 |  | < 2000 | 
COC(=O)[C@@H]1[C@@H](OC(C)=O)CCN1c1cc(-n2ccnc2)c2ccc(Cl)c(Cl)c2n1 [I-642, methyl (2S,3S)-3-acetoxy-1-(7,8-dichloro-4-(1H-imidazol-1-yl)quinolin-2-yl)pyrrolidine-2-carboxylate] | 2000 to 30000 |  | < 2000 | 
COC(=O)[C@@H]1C[C@H](C)CN1c1cc(-n2ccnc2)c2ccc(Cl)c(Cl)c2n1 [I-586] | 2000 to 30000 |  | < 2000 | 
O=C(O)CCOCCNc1cc(-n2ccnc2)c2ccc(Cl)c(Cl)c2n1 [I-693] | < 2000 |  | > 10000 | 
O=C(O)CCOC1CCN(c2cc(-n3ccnc3)c3ccc(Cl)c(Cl)c3n2)CC1 [I-864] | < 2000 | > 10000 |  | 
O=C(O)C1COCCN1c1cc(-n2ccnc2)c2ccc(Cl)c(Cl)c2n1 (stereo not shown) [I-92] |  |  | > 10000 | < 2000
CC(=O)N[C@H]1CCN(c2cc(-n3ccnc3)c3ccc(Cl)c(Cl)c3n2)C1 [I-764, (S)—N-(1-(7,8-dichloro-4-(1H-imidazol-1-yl)quinolin-2-yl)pyrrolidin-3-yl)acetamide] | < 2000 | > 10000 |  | 
O=C(O)CCOC[C@@H]1CCCN1c1cc(-n2ccnc2)c2cc(Cl)c(Cl)c(Cl)c2n1 [I-876] | < 2000 | < 2000 |  | 

Continued, values first:

IC50 [1, 3] [nM] | IC50 [2, 4] [nM] | IC50 [2, 5] [nM] | IC50 [1, 6] [nM] | SMILES
< 2000 | < 2000 |  |  | CC(C)N(CCOCCC(=O)O)c1cc(-n2ccnc2)c2ccc(Cl)c(Cl)c2n1 [I-833]
< 2000 | < 2000 |  |  | CC(C)(C)O[C@@H]1C[C@@H](COCCC(=O)O)N(c2cc(-n3ccnc3)c3ccc(Cl)c(Cl)c3n2)C1 [I-796]
2000 to 30000 |  | < 2000 |  | CC(C)OC(=O)[C@@H]1[C@@H](O)CCN1c1cc(-n2ccnc2)c2ccc(Cl)c(Cl)c2n1 [I-600]
2000 to 30000 |  | < 2000 |  | CCOC(=O)[C@@H]1[C@@H](O)CCN1c1cc(-n2ccnc2)c2ccc(Cl)c(Cl)c2n1 [I-599]
2000 to 30000 | > 10000 |  |  | COC(=O)CCC(=O)NNc1cc(-n2ccnc2)c2ccc(Cl)c(Cl)c2n1 [I-758]
< 2000 | 2000 to 10000 |  |  | CC(OCCC(=O)O)c1cccc(-c2cc(-n3ccnc3)c3ccc(Cl)c(Cl)c3n2)c1 (stereo not shown) [I-880]
2000 to 30000 | > 10000 |  |  | COC(=O)CCNC(=O)[C@@H]1[C@@H](O)CCN1c1cc(-n2ccnc2)c2ccc(Cl)c(Cl)c2n1 [I-791, methyl 3-((2S,3S)-1-(7,8-dichloro-4-(1H-imidazol-1-yl)quinolin-2-yl)-3-hydroxypyrrolidine-2-carboxamido)propanoate]
 |  | < 2000 | < 2000 | NS(=O)(=O)CCNc1cc(-n2ccnc2)c2ccc(Cl)c(Cl)c2n1 [I-200]
< 2000 |  | < 2000 |  | O=C(O)CCCCOC[C@@H]1CCCN1c1cc(-n2ccnc2)c2ccc(Cl)c(Cl)c2n1 [I-676]
2000 to 30000 |  | 2000 to 10000 |  | Clc1ccc2c(-n3ccnc3)cc(N3CCCC3c3ncc[nH]3)nc2c1Cl (stereo not shown) [I-467]
< 2000 | < 2000 |  |  | O=C(O)CCOC[C@@H]1C[C@H]2C[C@H]2N1c1cc(-n2ccnc2)c2ccc(Cl)c(Cl)c2n1 [I-805]
< 2000 |  | 2000 to 10000 |  | O=C(O)[C@@H]1[C@@H]2C[C@@H]2CN1c1cc(-n2ccnc2)c2ccc(Cl)c(Cl)c2n1 [I-470]
< 2000 |  | < 2000 |  | COC(=O)[C@@H]1CC2C[C@@H]2N1c1cc(-n2ccnc2)c2ccc(Cl)c(Cl)c2n1 (stereo partly shown) [I-576]
< 2000 | < 2000 |  |  | C[C@H]1CCN(c2cc(-n3ccnc3)c3ccc(Cl)c(Cl)c3n2)[C@@H]1COCCC(=O)O [I-792]
2000 to 30000 |  | > 10000 |  | COC(=O)[C@@H]1[C@H](O)CCN1c1cc(-n2ccnc2)c2ccc(Cl)c(Cl)c2n1 [I-597]
< 2000 | > 10000 |  |  | O=C(O)CCOCCN(CCOCCC(=O)O)c1cc(-n2ccnc2)c2ccc(Cl)c(Cl)c2n1 [I-839]
< 2000 | > 10000 |  |  | O=C(O)CCOCc1ccccc1-c1cc(-n2ccnc2)c2ccc(Cl)c(Cl)c2n1 [I-841]
< 2000 | 2000 to 10000 |  |  | O=C(O)Cc1ccccc1CNc1cc(-n2ccnc2)c2ccc(Cl)c(Cl)c2n1 [I-888]
< 2000 | 2000 to 10000 |  |  | CCOC(=O)CNC(=O)C[C@@H]1[C@@H](O)CCN1c1cc(-n2ccnc2)c2ccc(Cl)c(Cl)c2n1 [I-787, ethyl (2-((2R,3S)-1-(7,8-dichloro-4-(1H-imidazol-1-yl)quinolin-2-yl)-3-hydroxypyrrolidin-2-yl)acetyl)glycinate]
< 2000 |  | 2000 to 10000 |  | O=C(O)CC[C@@H]1CCCN1c1cc(-n2ccnc2)c2ccc(Cl)c(Cl)c2n1 [I-679]
< 2000 | < 2000 |  |  | O=C(O)CCOCC12CC(CN1c1cc(-n3ccnc3)c3ccc(Cl)c(Cl)c3n1)C2 [I-800]
< 2000 |  | < 2000 |  | O=C(OCC(F)(F)F)[C@@H]1[C@@H](O)CCN1c1cc(-n2ccnc2)c2ccc(Cl)c(Cl)c2n1 [I-556]
< 2000 | < 2000 |  |  | O=C(O)CCOC[C@@H]1C[C@@H]2CCCC[C@@H]2N1c1cc(-n2ccnc2)c2ccc(Cl)c(Cl)c2n1 [I-808]
< 2000 | 2000 to 10000 |  |  | COC(=O)C[C@@H]1[C@@H](O)CCN1c1cc(-n2ccnc2)c2ccc(Cl)c(Cl)c2n1 [I-786, methyl 2-((2R,3S)-1-(7,8-dichloro-4-(1H-imidazol-1-yl)quinolin-2-yl)-3-hydroxypyrrolidin-2-yl)acetate]
< 2000 |  | < 2000 |  | CO[C@@H]1C[C@@H](COCCC(=O)O)N(c2cc(-n3ccnc3)c3ccc(Cl)c(Cl)c3n2)C1 [I-711]

— patent US11873291B2, “Quinoline cGAS antagonist compounds” (ImmuneSensor Therapeutics, Inc., priority 2020, dated 2024)
